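Assay format: 96-well plates, 48-hour exposure. GI50 marks 50% less growth. At the TGI there is no net growth.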

In the first experiment the test system is HS 578T breast. Put plainly: DTP human tumour cell line panel, 48 h.
For the molecule `O=C(c1cccs1)c1c(C(F)(F)F)n([O-])c2ccccc2[n+]1=O`, the GI50 (commonly the concentration giving 50% growth inhibition) was 1.03 µM and the total growth inhibition concentration (TGI) (in general, the concentration giving total growth inhibition) is 2.91 µM.
The molecule `CSc1nc(SC)c2c(CN=[N+]=[N-])c(Br)n(Cc3ccccc3)c2n1` returned a TGI of over 100 µM.
With `COC(=O)C1OC(O[C@H]2CCC3(C)C(CCC4(C)C3CC=C3C5CC(C)(C)CCC5(C(=O)O)CC[C@]34C)C2(C)C)C(O)C(OC2OC(CO)C(O)C(O)C2O)C1O` (stereo partly drawn), the GI50 was 8.77 µM and the concentration for total growth inhibition (TGI) is 21.6 µM.

Another experiment relates to SK-MEL-2 melanoma. In words: DTP human tumour cell line panel, 48 h.
`Cn1cc(NC(=O)c2cc(NC(=O)CCCCCCCCCCC(=O)Nc3cc(C(=O)Nc4cc(C(=O)NCCC(=N)N)n(C)c4)n(C)c3)cn2C)cc1C(=O)NCCC(=N)N` showed a concentration for total growth inhibition (TGI) of over 100 µM.
Turning to `C1COCCN1.C1COCCN1.N.N.[Cl-].[Pt+2]`, the GI50 was over 100 µM and the TGI was over 100 µM.
Consider `CNC(=O)c1ccccc1CC1(O)c2ccccc2Oc2ccccc21`, for which the GI50 is 14.2 µM and the concentration for total growth inhibition (TGI) is 34.5 µM.
As for `C#CCNC(=O)NC(CCCNC(=O)OCc1ccccc1)C(=O)OCc1ccccc1` (stereo not drawn), the TGI was over 100 µM.
In the case of `O=c1[nH]c2ccccc2cc1C(Cl)=C(Cl)Cl`, the TGI was over 100 µM.
Regarding `O=[N+]([O-])[C@@H]1C2C=CC(C2)[C@H]1Cl` (stereo partly drawn), the TGI was over 100 µM.
For `COC(=O)C(C#N)=C1c2ccccc2Oc2ccccc21`, the TGI was over 100 µM.
In the case of `O=C(c1cccs1)c1c(C(F)(F)F)n([O-])c2ccccc2[n+]1=O`, the GI50 is 2.21 µM and the concentration for total growth inhibition (TGI) was found to be 10.5 µM.
Turning to `N#CC1(c2nc3ccccc3o2)C(=O)C(=O)N(C2C3CC4CC(C3)CC2C4)C(=O)C1=O` (stereo not drawn), the TGI is over 100 µM.
Take `O=C1NC(c2ccc(O)cc2)C2CCC1C2` (stereo not drawn): the concentration for total growth inhibition (TGI) was over 100 µM.
In turn, `C=CC1=CSNN1` registered a TGI of over 100 µM.
Take `CSc1nc(SC)c2c(CN=[N+]=[N-])c(Br)n(Cc3ccccc3)c2n1`: the concentration for total growth inhibition (TGI) is over 100 µM.
In turn, `O=C(C#Cc1c[nH]c(=O)[nH]c1=O)c1ccccc1Cl` returned a TGI of 29.9 µM.
The same measure, in the same setting: the same measure for `CC(=O)OC1=C2CC3(C)OC(=O)CC(C)(C)C3=CC=C2C=C(C(C)C)C1=O` (stereo not drawn): 1.65 µM.
Regarding `COC(=O)C1OC(O[C@H]2CCC3(C)C(CCC4(C)C3CC=C3C5CC(C)(C)CCC5(C(=O)O)CC[C@]34C)C2(C)C)C(O)C(OC2OC(CO)C(O)C(O)C2O)C1O` (stereo partly drawn), the GI50 is 11.9 µM and the TGI was over 33.3 µM.
`O=C1NC2(CCCC2)C(=O)C12CCCC2` had a TGI of over 100 µM.
As for `O=C1CCCN(c2ccccc2)N1`, the TGI is over 100 µM.
Turning to `CN(C)/C(=N/C(=S)Nc1ccccc1)SCc1ccccc1`, the total growth inhibition concentration (TGI) is over 100 µM.
As to `CCOC(=O)C1=C(C)Nc2ccccc2S1`, the TGI was over 100 µM.
For the molecule `CCOC(=O)CC1=Nc2ccccc2SC1`, the total growth inhibition concentration (TGI) is over 100 µM.
`C=CCSC[C@H](NC(=O)COc1ccccc1)C(=O)NC(C(=O)OCc1ccc([N+](=O)[O-])cc1)=C(C)C` displayed a TGI of over 100 µM.

The next experiment has as its system OVCAR-5 ovarian. Put plainly: DTP human tumour cell line panel, 48 h.
For the molecule `C[C@@H]1CC[C@H]2C(COCC3=C(C(F)(F)F)O[C@@H]4O[C@@]5(C)CC[C@H]6[C@H](C)CC[C@@H]3[C@@]46OO5)=C(C(F)(F)F)O[C@@H]3O[C@@]4(C)CC[C@@H]1[C@]32OO4`, the GI50 is 0.0101 µM and the TGI was over 100 µM.
As to `CCOc1ccc(NC(=O)CC2Sc3ccccc3NC2=O)cc1` (stereo not drawn), the TGI was over 100 µM.
Consider `Cn1cc(NC(=O)c2cc(NC(=O)CCCCCCCCCCC(=O)Nc3cc(C(=O)Nc4cc(C(=O)NCCC(=N)N)n(C)c4)n(C)c3)cn2C)cc1C(=O)NCCC(=N)N`, for which the TGI is over 100 µM.
Regarding `C1COCCN1.C1COCCN1.N.N.[Cl-].[Pt+2]`, the GI50 was over 100 µM and the TGI is over 100 µM.
For the molecule `CNC(=O)c1ccccc1CC1(O)c2ccccc2Oc2ccccc21`, the GI50 was 29.1 µM and the TGI is over 100 µM.
`Cc1ccccc1C(C#N)C(=O)C(=O)Nc1nc([N+](=O)[O-])cs1` (stereo not drawn) gave a TGI of over 100 µM.
With `COC(=O)C(c1[nH]nc2ccccc12)C(C(=O)OC)c1[nH]nc2ccccc12` (stereo not drawn), the TGI was over 100 µM.
`C#CCNC(=O)NC(CCCNC(=O)OCc1ccccc1)C(=O)OCc1ccccc1` (stereo not drawn) yielded a TGI of over 100 µM.
`O=c1[nH]c2ccccc2cc1C(Cl)=C(Cl)Cl` had a TGI of over 100 µM.
`O=[N+]([O-])[C@@H]1C2C=CC(C2)[C@H]1Cl` (stereo partly drawn): the TGI was over 100 µM.
Regarding `COC(=O)C(C#N)=C1c2ccccc2Oc2ccccc21`, the concentration for total growth inhibition (TGI) was over 100 µM.
Turning to `O=C(c1cccs1)c1c(C(F)(F)F)n([O-])c2ccccc2[n+]1=O`, the GI50 is 1.04 µM and the TGI is 2.49 µM.
The molecule `N#CC1(c2nc3ccccc3o2)C(=O)C(=O)N(C2C3CC4CC(C3)CC2C4)C(=O)C1=O` (stereo not drawn) had a TGI of over 100 µM.
The molecule `O=C1NC(c2ccc(O)cc2)C2CCC1C2` (stereo not drawn) returned a TGI of over 100 µM.
On the same count and under the same terms, then `C=CC1=CSNN1`, with over 100 µM; and `CSc1nc(SC)c2c(CN=[N+]=[N-])c(Br)n(Cc3ccccc3)c2n1`, with over 100 µM.
In turn, `O=C(C#Cc1c[nH]c(=O)[nH]c1=O)c1ccccc1Cl` displayed a TGI of 34 µM.
On the same count and under the same terms, the same measure for `CC(=O)OC1=C2CC3(C)OC(=O)CC(C)(C)C3=CC=C2C=C(C(C)C)C1=O` (stereo not drawn): 2.24 µM; for `CCCCCCCCCCCCCCCC(=O)NCC(COP(=O)([O-])OCC[N+](C)(C)C)OCC` (stereo not drawn): 22 µM.
Consider `COC(=O)C1OC(O[C@H]2CCC3(C)C(CCC4(C)C3CC=C3C5CC(C)(C)CCC5(C(=O)O)CC[C@]34C)C2(C)C)C(O)C(OC2OC(CO)C(O)C(O)C2O)C1O` (stereo partly drawn), for which the GI50 was 7.31 µM and the TGI came out at 13.5 µM.
As to `O=C1NC2(CCCC2)C(=O)C12CCCC2`, the TGI was over 100 µM.
As for `O=C1CCCN(c2ccccc2)N1`, the TGI was over 100 µM.
The molecule `CN(C)/C(=N/C(=S)Nc1ccccc1)SCc1ccccc1` showed a total growth inhibition concentration (TGI) of over 100 µM.
The molecule `CCOC(=O)C1=C(C)Nc2ccccc2S1` yielded a TGI of over 100 µM.
In turn, `CCOC(=O)CC1=Nc2ccccc2SC1` had a concentration for total growth inhibition (TGI) of over 100 µM.

A further experiment relates to CAKI-1 renal. In words: DTP human tumour cell line panel, 48 h.
On to `C[C@@H]1CC[C@H]2C(COCC3=C(C(F)(F)F)O[C@@H]4O[C@@]5(C)CC[C@H]6[C@H](C)CC[C@@H]3[C@@]46OO5)=C(C(F)(F)F)O[C@@H]3O[C@@]4(C)CC[C@@H]1[C@]32OO4`, for which the concentration for 50% growth inhibition (GI50) was 0.205 µM and the concentration for total growth inhibition (TGI) was over 100 µM.
On to `CCOc1ccc(NC(=O)CC2Sc3ccccc3NC2=O)cc1` (stereo not drawn), for which the total growth inhibition concentration (TGI) was over 100 µM.

For the origin of these results see PubChem BioAssay (NCI).
